What was measured:
human naive T cells = experiment: Inhibition of differentiation of human naive T cells into T helper 2 (Th2) cells; format: cell-based; parameters: dose or concentration left out as unconfirmed; conditions: for IL-4 expressing cells, % gated cells: Th2 control 26.32; for IL-4 expressing cells, % Th2 cells: Th2 control = 100
Procedure: In vitro assay for inhibition of differentiation of human naive T cells into T helper 2 (Th2) cells by retinoid antagonists.
Naive T cells from cord blood were isolated and treated as described [Panina-Bordignon et al. J. Clin. Invest. 100. 1513-1519 (1997)]. Briefly, cord blood derived mononuclear cells were incubated with anti-CD45RA and anti-CD4 monoclonal antibodies. After a 20 minute incubation, cells were washed and incubated with goat antimouse Ig-coated magnetic beads. Positive cells were separated and seeded at 1 x 10^6 cells/ml in a 24 well plate, together with autologous adherent cells, PHA, and IL-4 in the presence or absence of Compound H or Compound B […] for 5 days. Cells were then washed and put back in culture in the presence of IL-2 (100 U/ml). After 10 days, the cells were collected and restimulated with PMA (50 ng/ml) and ionomycin (1 µg/ml) for 4 hours. Brefeldin A (10 µg/ml) was added for the last 2 hours. Then the cells were fixed with 4% paraformaldehyde and permeabilized with saponin. Fixed cells were stained with FITC-anti IFNγ and PE-anti-IL-4mAbs and subjected to cytofluorimetric analysis.

IL-12 [1] = experiment: IL-12 production by PBMC primed with IFNγ and stimulated with SAC; format: cell-based, human; conditions: IFNγ+SAC alone 360
Procedure: (§1) THP-1 cells were obtained from American Tissue Culture Collection and cultured in complete medium. To assay for IL-12 production, THP-1 cells, 1.25 x 10^6 cells/ml, were stimulated with S. aureus Cowan strain (SAC) (1/1000) and human recombinant interferon-γ (huIFN-γ (1000 U/ml) [Ma et al., J. Exp. Med. 183, 147-157 (1996)]. Alternatively, 0.5 x 10^6 human peripheral blood mononuclear cells (PBMC) (1 ml culture in 48 well plates) were primed with huIFN-γ (1000 U/ml) for 16 hours at 37°C, and then stimulated with SAC (1/1000). Supernatants were collected after 48 hours and freezed at -20 °C until assayed [Panina-Bordignon et al., J. Clin. Invest. 100, 1513-1519 (1997)].
(§2) IL-12 production was measured by specific enzyme linked immuno sorbant assay (ELISA), using 20C2 antibody (rat anti human IL-12 heterodimer p40-p35), at 2.5 µg/ml in coating buffer, and peroxidase-conjugated 4D6 antibody (rat anti human IL-12) at 250 ng/ml in assay buffer as described [Zhang et al., J. Clin. Invest. 93, 1733-1739 (1994)]. Standard (recombinant human IL-12, 800 pg/ml to 6 pg/ml) and samples (100 µl) diluted in assay buffer were added to duplicate wells. Absorbance was read at 450-650 nm. The unknown IL-12 concentrations of the samples were read from the corresponding standard curve and multiplied by the corresponding dilution factor. Maximal IL-12 production varied between 200 and 400 pg/ml.
(§3) Lyophilized retinoid antagonists were diluted in DMSO under yellow light, on ice at a concentration of 2 mM. Serial dilutions (1 µM-1 pM) were prepared in complete RPMI medium. 10 µl of each dilution was added to 1 ml culture.

TNF-α = TNF-α production by activated monocytes (SAC + IFN-γ); format: cell-based, human; conditions: SAC+IFN-γ alone 1840-2000 pg/ml
IL-10 = IL-10 production by activated monocytes (SAC + IFN-γ); format: cell-based, human; conditions: SAC+IFN-γ alone 1040 pg/ml
neonatal mouse calvaria = experiment: Bone resorption assay, calcium release from neonatal mouse calvaria in tissue culture; format: cell-based, Swiss albino mice; conditions: for bone resorption induced by six different agents: inducers: calcitriol, all-trans RA, 9-cis RA, PGE2, TNFα, IL-1α (tables 6 to 11)
Procedure: A series of agents are known to induce or stimulate bone resorption. In this assay retinoid antagonists were tested for their capacity to inhibit or counteract the bone resorptive activity of bone resorption inducers.
Bone resorption was determined by quantification of calcium release from neonatal mouse calvaria (skull bones) in a tissue culture system, into supernatant medium. Calvaria were prepared from 4 days old mice (body weight 4-4.5 g) of time controlled mated Swiss albino mice. Frontal and parietal calvarial parts were dissected under a stereo-microscope and halved along the median suture. Half calvaria from all animals were randomly distributed to 6-well culture dishes (NUNC), containing stainless steel grids to support the bones at the interface of gas and medium. The tissue is incubated in BGJ medium (Bioconcept, Switzerland) according to a specified formulation supplemented with 1 mg/ml BSA (bovine serum albumin, SIGMA). Calvaria were cultured at 37°C in humidified atmosphere of 5% CO2 and 95% air. After 24 hours of preincubation, they were transferred to new dishes containing 1.7 ml fresh medium and test substances. Bone resorption inducers and retinoid antagonists were tested either as single agents or in combination. The cultures were then run for 72 hours. Calcium concentrations in culture supernatants were measured immediately after each incubation period. Stable, free calcium was determined in 25 µl samples with a spectrophotometric method using a methylthymol blue containing kit (Biomérieux), (E.M. Gindler and J.D. King, Am. J. Clin. Pathol. 1972, 58, 376-382). The resorptive response was expressed as µg calcium released per half calvarium during 3 days treatment.
Additional tests were done to examine calcium remaining in the calvaria. Calcium was extracted with 5% trichloroacetic acid (TCA) and determined in 50 µl samples after neutralization with NaOH. Furthermore, bone tissue viability was determined to exclude cytotoxicity. This was quantified by the colorimetric MTT tetrazolium test (T. Mosmann, J. Immunol. Methods 1983, 65, 55-63).
Bone resorption induced by the various agents was determined by measuring the amount of calcium released from half calvaria into the supernatant medium. Calcium release is indicated in µg per half calvarium in 1.7 ml medium. Calcium release from calvaria into medium as well as uptake of calcium from medium into calvaria can be measured. Efficacy of retinoid antagonists to inhibit the activity of bone resorption inducers is expressed as % inhibition. It is calculated from the difference between the amount of released calcium by bone resorption inducers alone and the amount of released calcium by their combination with retinoid antagonists. Retinoid antagonists alone induce neither calcium release nor uptake. Basal resorption rate in vehicle controls was 5 or less than 5%.

IL-12 [2] = experiment: IL-12 production by THP-1 cells stimulated with IFNγ and SAC; format: cell-based, human; conditions: retinoid antagonist (1 µg) added at time 0 together with IFNγ, IFNγ+SAC alone 275
Procedure: as §1, §2, §3

[3] = retinoid antagonist (1 µg) added after 16 hours together with SAC
[4] = retinoid antagonist (1 µg) added at time 0 together with IFNγ
[5] = 9-cis RA 0.1 μM + retinoid antagonist 1 μM
[6] = 9-cis RA 0.1 μM + retinoid antagonist 10 μM
[7] = 9-cis RA 1 μM + retinoid antagonist 10 μM
[8] = Calcitriol 0.3 nM + retinoid antagonist 1 µM
[9] = Calcitriol 1 nM + retinoid antagonist 1 µM
[10] = Calcitriol 3 nM + retinoid antagonist 1 µM
[11] = all-trans RA 0.1 μM + retinoid antagonist 1 μM
[12] = all-trans RA 0.1 μM + retinoid antagonist 10 μM
[13] = all-trans RA 1 μM + retinoid antagonist 10 μM

| SMILES | IL-4 expressing cells, % gated cells (human naive T cells) | IL-4 expressing cells, % Th2 cells (human naive T cells) | PBMC IL-12 (IL-12 [1]; [3]) | PBMC IL-12 (IL-12 [1]; [4]) | TNF-α (TNF-α; antagonist 10 nM) | TNF-α (TNF-α; antagonist 100 nM) | TNF-α (TNF-α; antagonist 1000 nM) | IL-10 (IL-10; antagonist 10 nM) | IL-10 (IL-10; antagonist 100 nM) | IL-10 (IL-10; antagonist 1000 nM) | Calcium release per half calvarium (neonatal mouse calvaria; [5]) | Inhibition of bone resorption by retinoid antagonists (neonatal mouse calvaria; [5]) | Calcium release per half calvarium (neonatal mouse calvaria; [6]) | Inhibition of bone resorption by retinoid antagonists (neonatal mouse calvaria; [6]) | Calcium release per half calvarium (neonatal mouse calvaria; [7]) | Inhibition of bone resorption by retinoid antagonists (neonatal mouse calvaria; [7]) | Calcium release per half calvarium (neonatal mouse calvaria; [8]) | Inhibition of bone resorption by retinoid antagonists (neonatal mouse calvaria; [8]) | Calcium release per half calvarium (neonatal mouse calvaria; [9]) | Inhibition of bone resorption by retinoid antagonists (neonatal mouse calvaria; [9]) | further results |
| --- | --- | --- | --- | --- | --- | --- | --- | --- | --- | --- | --- | --- | --- | --- | --- | --- | --- | --- | --- | --- | --- |
| CCCCCCCOc1cc2c(cc1/C(C)=C/c1ccc(C(=O)O)cc1)C(C)(C)CCS2(=O)=O [Compound H, p-[(E)-2-[3',4'-Dihydro-4',4'-dimethyl-7'-(beptyloxy)-2'H-1-benzothiopyran-6'-yl]propenyl]benzoic acid 1',1'-dioxide] | 10.8% | 41% | 401 pg/mL | 503 pg/mL | 1392 pg/mL | 1600 pg/mL | 1912 pg/mL | 1060 pg/mL | 1050 pg/mL | 1343 pg/mL | 4 ± 5 µg | 82% | -5 ± 3 µg | 123% | 28 ± 7 µg | 30% | 0 ± 3 µg | 100% | 4 ± 3 µg | 55.6% | Calcium release per half calvarium (neonatal mouse calvaria; [10]): 11 ± 6 µg; Inhibition of bone resorption by retinoid antagonists (neonatal mouse calvaria; [10]): 15.4%; Calcium release per half calvarium (neonatal mouse calvaria; [11]): 2 ± 11 µg; Inhibition of bone resorption by retinoid antagonist (neonatal mouse calvaria; [11]): 89.5%; Calcium release per half calvarium (neonatal mouse calvaria; [12]): -5 ± 4 µg; Inhibition of bone resorption by retinoid antagonist (neonatal mouse calvaria; [12]): 126.3%; Calcium release per half calvarium (neonatal mouse calvaria; [13]): -2 ± 3 µg; Inhibition of bone resorption by retinoid antagonist (neonatal mouse calvaria; [13]): 108.7%; bone resorption induced by six different agents (neonatal mouse calvaria): counteract bone resorption; THP-1 IL-12 (IL-12 [2]): 306 pg/mL |
| CCCCOc1c(\C(C)=C/C=C/C(C)=C/C(=O)O)cc(C(C)(C)C)cc1C(C)(C)C [Compound B, (2E,4E,6Z)-7-(3,5-di-tert.butyl-2-butyloxyphenyl]-3-methyl-2,4,6-octatrienoic acid] | 8.5% | 32% | 367 pg/mL | 568 pg/mL | 1484 pg/mL | 1812 pg/mL | 1560 pg/mL | 1020 pg/mL | 1521 pg/mL | 1700 pg/mL | 2 ± 5 µg | 33.3% | -4 ± 3 µg | 123.5% | -6 ± 2 µg | 133.3% | -1 ± 2 µg | 125% | 5 ± 3 µg | 44.4% | Calcium release per half calvarium (neonatal mouse calvaria; [10]): 4 ± 4 µg; Inhibition of bone resorption by retinoid antagonists (neonatal mouse calvaria; [10]): 69.2%; Calcium release per half calvarium (neonatal mouse calvaria; [11]): 5 ± 4 µg; Inhibition of bone resorption by retinoid antagonist (neonatal mouse calvaria; [11]): 61.5%; Calcium release per half calvarium (neonatal mouse calvaria; [12]): -3 ± 4 µg; Inhibition of bone resorption by retinoid antagonist (neonatal mouse calvaria; [12]): 123.1%; Calcium release per half calvarium (neonatal mouse calvaria; [13]): 10 ± 7 µg; Inhibition of bone resorption by retinoid antagonist (neonatal mouse calvaria; [13]): 41.2%; bone resorption induced by six different agents (neonatal mouse calvaria): counteract bone resorption; THP-1 IL-12 (IL-12 [2]): 577 pg/mL |
